Measurements from ChEMBL document CHEMBL1132671, “The synthesis of a new class of oxytocin antagonists” (Bioorg Med Chem Lett, 1999).
Calls of active or inactive are those of the source. No cut-off for these calls is given here.

Assays:
[1] = molecular target: T1, Oxytocin receptor (Homo sapiens, UniProt P30559); assay: […] antagonistic activity against cloned human oxytocin receptor over-expressed in a stable HEK293 cell line; assay type: functional
T1 sequence (P30559 whole entry): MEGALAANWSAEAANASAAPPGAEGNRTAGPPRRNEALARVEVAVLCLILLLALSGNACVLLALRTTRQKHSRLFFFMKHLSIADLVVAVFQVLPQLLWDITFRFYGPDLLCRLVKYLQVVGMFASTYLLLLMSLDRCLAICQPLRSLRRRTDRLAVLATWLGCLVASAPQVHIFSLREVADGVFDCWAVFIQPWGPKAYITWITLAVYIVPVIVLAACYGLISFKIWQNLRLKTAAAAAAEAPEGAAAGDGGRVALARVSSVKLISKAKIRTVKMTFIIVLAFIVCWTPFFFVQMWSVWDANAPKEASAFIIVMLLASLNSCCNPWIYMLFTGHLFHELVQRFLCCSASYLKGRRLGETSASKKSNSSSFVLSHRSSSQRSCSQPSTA

[2] = species: Rattus norvegicus; assay: Dose inhibiting the response of a dose of oxytocin to half of the response in rat; assay type: functional; details: for ED50: Rattus norvegicus, read-out: ID50 (the source's name)
[3] = species: Rattus norvegicus; assay: Dose inhibiting the response of a dose of oxytocin to half of the response in rat;NA means no activity.; assay type: functional, organism-based

CC[C@@H](C)[C@@H]1NC(=O)[C@H]([C@@H](C)CC)NC(=O)[C@@H](Cc2c[nH]c3ccccc23)NC(=O)CCCSC[C@H](CCCN)NC(=O)[C@H](CC(N)=O)NC1=O
Ki [1]: 4 nM | ID50 [2]: 5.4 nmol/kg

CC[C@@H](C)[C@@H]1NC(=O)[C@H]([C@@H](C)CC)NC(=O)[C@@H](Cc2c[nH]c3ccccc23)NC(=O)CCSCC[C@@H](C(=O)N(C)[C@@H](CCCN)C(N)=O)NC(=O)[C@H](CC(N)=O)NC1=O
ED50 [2]: 0.0029 µmol/kg

CC[C@@H](C)[C@@H]1NC(=O)[C@H]([C@@H](C)CC)NC(=O)[C@@H](Cc2c[nH]c3ccccc23)NC(=O)CCCSCC(CCCCN)NC(=O)[C@H](CC(N)=O)NC1=O (single isomer, unassigned)
Ki [1]: 2.8 nM | ED50 [2]: 0.017 µmol/kg

CC[C@@H](C)[C@@H]1NC(=O)[C@H]([C@@H](C)CC)NC(=O)[C@@H](Cc2c[nH]c3ccccc23)NC(=O)CCSCC[C@@H](C(N)=O)NC(=O)[C@H](CC(N)=O)NC1=O
ED50 [2]: 0.048 µmol/kg

CC[C@@H](C)[C@@H]1NC(=O)[C@H]([C@@H](C)CC)NC(=O)[C@@H](Cc2c[nH]c3ccccc23)NC(=O)CCCSCC(CCCN)NC(=O)[C@H](CC(N)=O)NC1=O (single isomer, unassigned)
Ki [1]: 26 nM | ID50 [2]: 32 nmol/kg

CC[C@@H](C)[C@@H]1NC(=O)[C@H]([C@@H](C)CC)NC(=O)[C@@H](Cc2c[nH]c3ccccc23)NC(=O)CCCSCC2CCCN2C(=O)[C@H](CC(N)=O)NC1=O (single isomer, unassigned)
Ki [1]: 1000 nM | ID50 [3]: inactive
